The record followed here is ChEMBL document CHEMBL4613212, “Insights of synthetic analogues of anti-leprosy agents” (Bioorg Med Chem, 2019).

In data set [1] the test system is Mycobacterium leprae. Kind of data set: Antimicrobial activity against Mycobacterium leprae assessed as microbial growth at 0.375 ug/ml in presence of 0.0125 ug/ml KRM-1648 measured at 4 weeks (reference value: 147 +/- 19.1%). Format: functional.
Data set [2] deals with Mycobacterium leprae. In words: Antimicrobial activity against Mycobacterium leprae assessed as fractional inhibitory concentration index at 0.375 ug/ml in presence of 0.0125 ug/ml KRM-1648 measured at 4 weeks. Format: functional.
For data set [3], the system named is Mycobacterium leprae. In words: Antimicrobial activity against Mycobacterium leprae assessed as microbial growth at 0.75 ug/ml in presence of 0.2 ug/ml rifampin measured at 4 weeks (reference value: 147 +/- 19.1%). The data set is classed as functional.
The test system of data set [4] is Mycobacterium leprae. In words: Antimicrobial activity against Mycobacterium leprae assessed as fractional inhibitory concentration index at 0.375 ug/ml in presence of 0.05 ug/ml rifabutin measured at 4 weeks. Format: functional.
Data set [5] concerns Mycobacterium leprae. Kind of data set: Antimicrobial activity against Mycobacterium leprae assessed as microbial growth at 0.375 ug/ml in presence of 0.025 ug/ml rifabutin measured at 4 weeks (reference value: 147 +/- 19.1%). The data set is classed as functional.
Data set [6] relates to Mycobacterium leprae. Kind of data set: Antimicrobial activity against Mycobacterium leprae assessed as microbial growth at 0.75 ug/ml in presence of 0.1 ug/ml rifampin measured at 4 weeks (reference value: 147 +/- 19.1%). Format: functional.
Data set [7] has as its system Mycobacterium leprae. In words: Antimicrobial activity against Mycobacterium leprae assessed as microbial growth at 0.375 ug/ml in presence of 0.05 ug/ml rifabutin measured at 4 weeks (reference value: 147 +/- 19.1%). The data set is classed as functional.
The test system of data set [8] is Mycobacterium leprae. Kind of data set: Antimicrobial activity against Mycobacterium leprae assessed as microbial growth at 0.375 ug/ml in presence of 0.0062 ug/ml KRM-1648 measured at 4 weeks (reference value: 147 +/- 19.1%). The data set is classed as functional.
Data set [9] deals with Mycobacterium leprae. In words: Antimicrobial activity against Mycobacterium leprae assessed as fractional inhibitory concentration index at 0.75 ug/ml in presence of 0.2 ug/ml rifampin measured at 4 weeks. Format: functional.
In data set [10] the test system is Mycobacterium leprae. In words: Antimicrobial activity against Mycobacterium leprae assessed as microbial growth at 0.0469 ug/ml in presence of 0.0062 ug/ml KRM-1648 measured at 4 weeks (reference value: 147 +/- 19.1%). Format: functional.
For data set [11], the system named is Mycobacterium leprae. Kind of data set: Antimicrobial activity against Mycobacterium leprae assessed as microbial growth at 0.0469 ug/ml in presence of 0.0031 ug/ml KRM-1648 measured at 4 weeks (reference value: 147 +/- 19.1%). Format: functional.
Data set [12] relates to Mycobacterium leprae. In words: Antimicrobial activity against Mycobacterium leprae assessed as fractional inhibitory concentration index at 0.0938 ug/ml in presence of 0.2 ug/ml rifampin measured at 4 weeks. The data set is classed as functional.
Data set [13] relates to Mycobacterium leprae. Kind of data set: Antimicrobial activity against Mycobacterium leprae assessed as fractional inhibitory concentration index at 0.0469 ug/ml in presence of 0.05 ug/ml rifabutin measured at 4 weeks. Format: functional.
For data set [14], the system named is Mycobacterium leprae. Kind of data set: Antimicrobial activity against Mycobacterium leprae assessed as microbial growth at 0.0469 ug/ml in presence of 0.025 ug/ml rifabutin measured at 4 weeks (reference value: 147 +/- 19.1%). Format: functional.
Data set [15] concerns Mycobacterium leprae. Kind of data set: Antimicrobial activity against Mycobacterium leprae assessed as microbial growth at 0.0469 ug/ml in presence of 0.2 ug/ml rifampin measured at 4 weeks (reference value: 147 +/- 19.1%). The data set is classed as functional.
Data set [16] deals with Mycobacterium leprae. In words: Antimicrobial activity against Mycobacterium leprae assessed as fractional inhibitory concentration index at 0.0469 ug/ml in presence of 0.0062 ug/ml KRM-1648 measured at 4 weeks. The data set is classed as functional.
In data set [17] the test system is Mycobacterium leprae. Kind of data set: Antimicrobial activity against Mycobacterium leprae assessed as microbial growth at 0.0938 ug/ml in presence of 0.1 ug/ml rifampin measured at 4 weeks (reference value: 147 +/- 19.1%). Format: functional.
Data set [18] concerns Mycobacterium leprae. Kind of data set: Antimicrobial activity against Mycobacterium leprae assessed as microbial growth at 0.0938 ug/ml in presence of 0.2 ug/ml rifampin measured at 4 weeks (reference value: 147 +/- 19.1%). The data set is classed as functional.
For data set [19], the system named is Mycobacterium leprae. Kind of data set: Antimicrobial activity against Mycobacterium leprae assessed as microbial growth at 0.0469 ug/ml in presence of 0.05 ug/ml rifabutin measured at 4 weeks (reference value: 147 +/- 19.1%). The data set is classed as functional.
The test system of data set [20] is Mycobacterium leprae. In words: Antimicrobial activity against Mycobacterium leprae assessed as microbial growth at 0.1875 ug/ml in presence of 0.0125 ug/ml KRM-1648 measured at 4 weeks (reference value: 147 +/- 19.1%). Format: functional.
Data set [21] has as its system Mycobacterium leprae. Kind of data set: Antimicrobial activity against Mycobacterium leprae assessed as microbial growth at 0.1875 ug/ml in presence of 0.05 ug/ml rifabutin measured at 4 weeks (reference value: 147 +/- 19.1%). Format: functional.
Data set [22] deals with Mycobacterium leprae. In words: Antimicrobial activity against Mycobacterium leprae assessed as microbial growth at 0.1875 ug/ml in presence of 0.025 ug/ml rifabutin measured at 4 weeks (reference value: 147 +/- 19.1%). Format: functional.
The test system of data set [23] is Mycobacterium leprae. Kind of data set: Antimicrobial activity against Mycobacterium leprae assessed as fractional inhibitory concentration index at 0.1875 ug/ml in presence of 0.05 ug/ml rifabutin measured at 4 weeks. The data set is classed as functional.
For data set [24], the system named is Mycobacterium leprae. In words: Antimicrobial activity against Mycobacterium leprae assessed as microbial growth at 0.375 ug/ml in presence of 0.2 ug/ml rifampin measured at 4 weeks (reference value: 147 +/- 19.1%). Format: functional.
For data set [25], the system named is Mycobacterium leprae. In words: Antimicrobial activity against Mycobacterium leprae assessed as fractional inhibitory concentration index at 0.375 ug/ml in presence of 0.2 ug/ml rifampin measured at 4 weeks. The data set is classed as functional.
Data set [26] has as its system Mycobacterium leprae. In words: Antimicrobial activity against Mycobacterium leprae assessed as fractional inhibitory concentration index at 0.1875 ug/ml in presence of 0.0125 ug/ml KRM-1648 measured at 4 weeks. Format: functional.
Data set [27] relates to Mycobacterium leprae. In words: Antimicrobial activity against Mycobacterium leprae assessed as microbial growth at 0.375 ug/ml in presence of 0.1 ug/ml rifampin measured at 4 weeks (reference value: 147 +/- 19.1%). The data set is classed as functional.
The subject of data set [28] is Mycobacterium leprae. Kind of data set: Antimicrobial activity against Mycobacterium leprae assessed as microbial growth at 0.1875 ug/ml in presence of 0.0062 ug/ml KRM-1648 measured at 4 weeks (reference value: 147 +/- 19.1%). The data set is classed as functional.
For data set [29], the system named is Mycobacterium tuberculosis. Kind of data set: Antitubercular activity against Mycobacterium tuberculosis H37Rv ATCC 27294 assessed as inhibition of [3H]-thymidine incorporation relative to control. The data set is classed as functional. On the technique in general: Dividing cells build labelled thymidine or BrdU into new DNA.
For data set [30], the system named is Mycobacterium tuberculosis. Kind of data set: Antitubercular activity against Mycobacterium tuberculosis H37Rv ATCC 27294 assessed as growth inhibition at 6.25 ug/ml by microplate alamar blue assay relative to control. Format: functional. Background: The colour change of resazurin is a common sign of viable cells or microbes.
Data set [31] in a line: Selectivity index, ratio of IC50 for African green monkey Vero cells to MIC for antitubercular activity against Mycobacterium tuberculosis H37Rv. To be noted: Vero cells, read-out: Selectivity Index. Format: toxicity.
Data set [32] concerns Mycobacterium tuberculosis. Kind of data set: Antitubercular activity against Mycobacterium tuberculosis H37Rv ATCC 27294 infected in bone marrow macrophages assessed as reduction in growth after 7 days. The data set is classed as functional. The conditions noted are these: H37Rv ATCC 27294, 168 h.

As for `CC1COc2c(N3CCN(C)CC3)c(F)cc3c(=O)c(C(=O)O)cn1c23` (configuration not stated) [OFLOXACIN], the Activity amounted to 0% in the data set on Mycobacterium leprae [1]; 0% in the data set with Mycobacterium leprae [3]; 121% with Mycobacterium leprae [5]; 72% in the data set on Mycobacterium leprae [6]; 0% in the data set on Mycobacterium leprae [7]; 124% in the data set with Mycobacterium leprae [8]. For the same molecule, the “fractional inhibitory concentration index (FICI)” value in the data set with Mycobacterium leprae [2] is 0.5; in the data set on Mycobacterium leprae [4], 0.5; in the data set with Mycobacterium leprae [9] it was 1.

Turning to `N[C@@H]1CN(c2c(F)cc3c(=O)c(C(=O)O)cn([C@@H]4C[C@@H]4F)c3c2Cl)CC12CC2` [SITAFLOXACIN ANHYDROUS], the Activity in the data set on Mycobacterium leprae [10] turned out to be 0%; in the data set on Mycobacterium leprae [11], 89%; with Mycobacterium leprae [14], 141%; in the data set with Mycobacterium leprae [15], 138%; with Mycobacterium leprae [17], 124%; in the data set with Mycobacterium leprae [18], 0%. Also, in the data set on Mycobacterium leprae [19], the Activity is recorded as 0%. Also, the “fractional inhibitory concentration index (FICI)” value in the data set on Mycobacterium leprae [12] was 1; in the data set with Mycobacterium leprae [13] it was 0.5; in the data set with Mycobacterium leprae [16] it was 0.375.

In the case of `C[C@H]1COc2c(N3CCN(C)CC3)c(F)cc3c(=O)c(C(=O)O)cn1c23.C[C@H]1COc2c(N3CCN(C)CC3)c(F)cc3c(=O)c(C(=O)O)cn1c23.O` [LEVOFLOXACIN], the Activity with Mycobacterium leprae [20] was found to be 0%; with Mycobacterium leprae [21], 0%; with Mycobacterium leprae [22], 133%; with Mycobacterium leprae [24] it was 0%; in the data set with Mycobacterium leprae [27], 87%; in the data set on Mycobacterium leprae [28], 115%. The “fractional inhibitory concentration index (FICI)” value in the data set with Mycobacterium leprae [23] worked out at 0.5; with Mycobacterium leprae [25] it was 1; in the data set on Mycobacterium leprae [26], 0.5.

In general, inhibition refers to the relative decrease from the control value, in per cent. Usually EC99 stands for the concentration needed for an effect of 99%. As for `Clc1nc(-c2ccco2)c2ncn(Cc3ccccc3)c2n1`, the “inhibition (INH)” value in data set [29] is reported as 27%. In [30], the inhibition at 6.25 µg/mL is > 90%. Further, in data set [31], the selectivity ratio worked out at 10.6. In addition, in data set [32], the EC99 was 8 µg/mL.
